Laboratory results from ChEMBL document CHEMBL3596148, “Meridianin derivatives as potent Dyrk1A inhibitors and neuroprotective agents” (Bioorg Med Chem Lett, 2015).

Key:
[1] = target: T1, Aurora kinase A (Homo sapiens) (UniProt O14965); test: Inhibition of Aurora A (unknown origin) at 0.5 uM relative to control
T1 sequence (whole entry): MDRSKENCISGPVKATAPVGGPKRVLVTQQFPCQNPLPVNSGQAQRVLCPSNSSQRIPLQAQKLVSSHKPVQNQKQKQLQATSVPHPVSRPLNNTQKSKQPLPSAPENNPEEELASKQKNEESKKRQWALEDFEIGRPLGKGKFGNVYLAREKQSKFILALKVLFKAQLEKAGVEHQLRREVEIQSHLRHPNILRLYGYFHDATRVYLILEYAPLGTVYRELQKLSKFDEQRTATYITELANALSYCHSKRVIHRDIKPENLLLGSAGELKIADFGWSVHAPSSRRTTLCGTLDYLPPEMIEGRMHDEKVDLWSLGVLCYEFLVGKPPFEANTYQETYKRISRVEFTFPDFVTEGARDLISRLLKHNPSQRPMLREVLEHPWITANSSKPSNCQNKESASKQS

[2] = target: Insulin-like growth factor 1 receptor (Homo sapiens) (UniProt P08069); test: Inhibition of IGF-1R (unknown origin) at 0.5 uM relative to control
Chain of Insulin-like growth factor 1 receptor (Homo sapiens) (P08069 31-736 limits assumed): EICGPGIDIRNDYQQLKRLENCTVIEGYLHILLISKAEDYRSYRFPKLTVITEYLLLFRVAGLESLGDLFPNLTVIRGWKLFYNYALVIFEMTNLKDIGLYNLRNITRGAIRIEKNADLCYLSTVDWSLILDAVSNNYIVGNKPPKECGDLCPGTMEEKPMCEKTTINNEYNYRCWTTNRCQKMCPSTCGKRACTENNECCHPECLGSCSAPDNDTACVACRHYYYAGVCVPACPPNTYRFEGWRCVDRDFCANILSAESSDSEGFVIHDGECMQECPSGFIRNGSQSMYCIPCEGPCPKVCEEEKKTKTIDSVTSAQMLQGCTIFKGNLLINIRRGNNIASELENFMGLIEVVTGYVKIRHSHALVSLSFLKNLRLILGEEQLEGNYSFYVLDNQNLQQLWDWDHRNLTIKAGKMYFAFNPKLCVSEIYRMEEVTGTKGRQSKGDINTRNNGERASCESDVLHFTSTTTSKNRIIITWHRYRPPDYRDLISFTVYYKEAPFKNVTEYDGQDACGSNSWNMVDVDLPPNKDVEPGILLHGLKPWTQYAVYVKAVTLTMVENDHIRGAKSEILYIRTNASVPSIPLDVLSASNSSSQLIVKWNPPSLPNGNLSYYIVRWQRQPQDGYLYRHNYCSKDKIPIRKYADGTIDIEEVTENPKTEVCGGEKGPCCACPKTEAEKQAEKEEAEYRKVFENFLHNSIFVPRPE
Chain of Insulin-like growth factor 1 receptor (Homo sapiens) (P08069 741-1367 limits assumed): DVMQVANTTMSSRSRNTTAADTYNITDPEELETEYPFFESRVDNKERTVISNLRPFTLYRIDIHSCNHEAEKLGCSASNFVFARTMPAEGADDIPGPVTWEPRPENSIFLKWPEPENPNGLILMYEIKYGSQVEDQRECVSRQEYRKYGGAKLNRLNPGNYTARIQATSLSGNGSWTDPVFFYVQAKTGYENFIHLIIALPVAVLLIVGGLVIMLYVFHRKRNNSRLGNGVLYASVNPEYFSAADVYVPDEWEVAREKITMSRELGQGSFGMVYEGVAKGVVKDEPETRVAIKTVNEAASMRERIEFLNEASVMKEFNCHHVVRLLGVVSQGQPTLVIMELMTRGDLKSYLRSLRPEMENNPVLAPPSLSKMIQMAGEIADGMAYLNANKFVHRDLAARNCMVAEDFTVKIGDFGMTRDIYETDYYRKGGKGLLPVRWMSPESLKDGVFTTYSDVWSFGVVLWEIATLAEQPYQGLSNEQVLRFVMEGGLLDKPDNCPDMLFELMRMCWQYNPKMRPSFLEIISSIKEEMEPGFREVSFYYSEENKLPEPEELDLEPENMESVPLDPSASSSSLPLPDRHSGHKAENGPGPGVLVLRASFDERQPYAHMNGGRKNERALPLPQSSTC

[3] = target: AMP-activated protein kinase, AMPK (Homo sapiens) (UniProt P54646+O43741+P54619+Q9UGJ0+Q9Y478+Q13131+Q9UGI9); test: Inhibition of AMPK (unknown origin) at 0.5 uM relative to control; format: protein-complex assay
[4] = target: Glycogen synthase kinase-3 beta (Homo sapiens) (UniProt P49841); test: Inhibition of GSK3beta (unknown origin) at 0.5 uM relative to control
Chain of Glycogen synthase kinase-3 beta (Homo sapiens) (P49841 whole entry, looked up): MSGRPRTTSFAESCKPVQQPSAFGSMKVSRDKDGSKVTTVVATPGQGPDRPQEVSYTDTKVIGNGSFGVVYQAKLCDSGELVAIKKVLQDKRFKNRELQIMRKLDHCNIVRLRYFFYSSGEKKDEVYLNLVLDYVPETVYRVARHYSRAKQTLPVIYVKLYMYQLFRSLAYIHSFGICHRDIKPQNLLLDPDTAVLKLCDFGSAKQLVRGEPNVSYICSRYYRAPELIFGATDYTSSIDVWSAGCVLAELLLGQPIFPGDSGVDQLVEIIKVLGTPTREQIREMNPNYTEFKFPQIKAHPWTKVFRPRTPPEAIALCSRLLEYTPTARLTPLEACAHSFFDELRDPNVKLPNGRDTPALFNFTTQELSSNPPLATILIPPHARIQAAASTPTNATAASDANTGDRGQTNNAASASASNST

[5] = target: Dual specificity tyrosine-phosphorylation-regulated kinase 1A (Homo sapiens, UniProt Q13627); test: Inhibition of Dyrk1A (unknown origin) using Woodtide as substrate after 30 mins by P81 membrane assay in presence of [33P]-g-ATP
[6] = target: Casein kinase I isoform alpha (Homo sapiens) (UniProt P48729); test: Inhibition of CK1 (unknown origin) at 0.5 uM relative to control
Chain of Casein kinase I isoform alpha (Homo sapiens) (P48729 2-337 limits assumed): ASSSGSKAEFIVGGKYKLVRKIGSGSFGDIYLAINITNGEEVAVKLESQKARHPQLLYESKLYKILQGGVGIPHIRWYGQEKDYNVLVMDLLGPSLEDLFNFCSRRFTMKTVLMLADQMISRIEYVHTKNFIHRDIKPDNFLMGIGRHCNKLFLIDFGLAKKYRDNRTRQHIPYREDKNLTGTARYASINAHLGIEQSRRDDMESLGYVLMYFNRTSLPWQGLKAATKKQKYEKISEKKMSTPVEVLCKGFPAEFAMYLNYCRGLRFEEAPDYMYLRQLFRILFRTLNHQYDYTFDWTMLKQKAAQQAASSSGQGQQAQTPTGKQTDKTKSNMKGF

[7] = target: RAC-alpha serine/threonine-protein kinase (Homo sapiens) (UniProt P31749); test: Inhibition of PKBalpha (unknown origin) at 0.5 uM relative to control
Chain of RAC-alpha serine/threonine-protein kinase (Homo sapiens) (P31749 whole entry): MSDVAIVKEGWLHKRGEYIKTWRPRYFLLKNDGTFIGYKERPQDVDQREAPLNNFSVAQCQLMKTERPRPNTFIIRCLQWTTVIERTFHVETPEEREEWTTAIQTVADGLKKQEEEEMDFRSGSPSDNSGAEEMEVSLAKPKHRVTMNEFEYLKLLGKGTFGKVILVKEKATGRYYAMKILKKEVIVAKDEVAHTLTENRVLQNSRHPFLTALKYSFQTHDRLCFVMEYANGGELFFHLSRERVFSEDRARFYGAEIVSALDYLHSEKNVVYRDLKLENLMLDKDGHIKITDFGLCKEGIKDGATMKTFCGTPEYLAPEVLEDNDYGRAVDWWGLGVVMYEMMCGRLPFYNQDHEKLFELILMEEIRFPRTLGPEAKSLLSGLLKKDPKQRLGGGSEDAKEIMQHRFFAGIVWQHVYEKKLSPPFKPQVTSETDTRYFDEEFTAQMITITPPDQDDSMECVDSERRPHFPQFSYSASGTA

[8] = target: Tyrosine-protein kinase ABL1 (Homo sapiens) (UniProt P00519); test: Inhibition of Abl (unknown origin) at 0.5 uM relative to control
Chain of Tyrosine-protein kinase ABL1 (Homo sapiens) (P00519 whole entry): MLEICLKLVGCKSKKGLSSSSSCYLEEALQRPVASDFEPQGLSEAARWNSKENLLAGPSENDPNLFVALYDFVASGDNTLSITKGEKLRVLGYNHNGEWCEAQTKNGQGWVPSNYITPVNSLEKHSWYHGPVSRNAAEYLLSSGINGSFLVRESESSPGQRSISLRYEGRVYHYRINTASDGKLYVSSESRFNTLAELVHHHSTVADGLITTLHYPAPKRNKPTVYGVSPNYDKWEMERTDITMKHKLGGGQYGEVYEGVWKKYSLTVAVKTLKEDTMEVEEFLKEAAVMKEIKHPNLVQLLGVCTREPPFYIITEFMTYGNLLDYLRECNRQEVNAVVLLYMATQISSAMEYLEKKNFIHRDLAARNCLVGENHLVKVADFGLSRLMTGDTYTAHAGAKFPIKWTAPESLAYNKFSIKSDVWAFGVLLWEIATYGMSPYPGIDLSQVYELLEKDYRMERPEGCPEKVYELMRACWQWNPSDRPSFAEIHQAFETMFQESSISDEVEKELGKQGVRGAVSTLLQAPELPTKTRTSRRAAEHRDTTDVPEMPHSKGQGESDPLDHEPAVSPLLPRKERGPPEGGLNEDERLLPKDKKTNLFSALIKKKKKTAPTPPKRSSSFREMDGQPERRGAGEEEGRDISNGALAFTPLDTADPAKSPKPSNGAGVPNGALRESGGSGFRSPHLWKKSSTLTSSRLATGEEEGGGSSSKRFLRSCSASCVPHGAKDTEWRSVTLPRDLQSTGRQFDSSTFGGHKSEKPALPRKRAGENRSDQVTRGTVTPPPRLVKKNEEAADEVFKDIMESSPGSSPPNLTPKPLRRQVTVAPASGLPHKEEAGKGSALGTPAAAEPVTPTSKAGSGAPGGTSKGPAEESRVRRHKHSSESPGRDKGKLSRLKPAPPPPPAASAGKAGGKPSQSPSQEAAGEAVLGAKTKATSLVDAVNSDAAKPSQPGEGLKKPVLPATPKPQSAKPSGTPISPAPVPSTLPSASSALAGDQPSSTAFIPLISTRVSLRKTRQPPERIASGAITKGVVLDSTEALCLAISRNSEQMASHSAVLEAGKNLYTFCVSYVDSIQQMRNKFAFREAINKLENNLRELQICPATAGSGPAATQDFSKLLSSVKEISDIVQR

[9] = target: Cyclin-dependent kinase 9 (Homo sapiens) (UniProt P50750); test: Inhibition of CDK9 (unknown origin) at 0.5 uM relative to control
Chain of Cyclin-dependent kinase 9 (Homo sapiens) (P50750 whole entry): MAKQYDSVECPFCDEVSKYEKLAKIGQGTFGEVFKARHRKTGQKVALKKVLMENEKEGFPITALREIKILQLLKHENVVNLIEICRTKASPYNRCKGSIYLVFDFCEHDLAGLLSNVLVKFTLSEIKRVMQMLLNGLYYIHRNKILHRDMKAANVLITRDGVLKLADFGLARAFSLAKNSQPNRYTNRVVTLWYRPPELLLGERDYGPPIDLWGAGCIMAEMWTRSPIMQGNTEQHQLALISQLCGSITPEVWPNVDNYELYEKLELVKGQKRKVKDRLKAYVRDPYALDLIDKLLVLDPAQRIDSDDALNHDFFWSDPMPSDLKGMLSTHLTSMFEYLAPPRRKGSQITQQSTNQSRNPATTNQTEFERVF

inhibition [1]: 0%
inhibition [2]: 2.1%
inhibition [3]: 4.4%
inhibition [4]: 22.7%
IC50 [5]: 500 nM
inhibition [6]: 13.8%
inhibition [7]: 16.4%
inhibition [8]: 3%
inhibition [9]: 12.6%
Compound: Nc1nccc(-c2cn(C(=O)N3CCOCC3)c3ccc(Br)cc23)n1
